Legend:
Type in all cases: biochemical
BMX/ETK = target: T1, BMX/ETK (Homo sapiens, UniProt P51813); assay: BMX/ETK kinase profiling (BTK protocol); conditions: for BMX/ETK @ 0.3 μM (% Inh): 0.3 μM compound; for IC50: 10 dose IC50
T1 construct: purchased Reaction Biology Corporation
T1 sequence (P51813 1-675): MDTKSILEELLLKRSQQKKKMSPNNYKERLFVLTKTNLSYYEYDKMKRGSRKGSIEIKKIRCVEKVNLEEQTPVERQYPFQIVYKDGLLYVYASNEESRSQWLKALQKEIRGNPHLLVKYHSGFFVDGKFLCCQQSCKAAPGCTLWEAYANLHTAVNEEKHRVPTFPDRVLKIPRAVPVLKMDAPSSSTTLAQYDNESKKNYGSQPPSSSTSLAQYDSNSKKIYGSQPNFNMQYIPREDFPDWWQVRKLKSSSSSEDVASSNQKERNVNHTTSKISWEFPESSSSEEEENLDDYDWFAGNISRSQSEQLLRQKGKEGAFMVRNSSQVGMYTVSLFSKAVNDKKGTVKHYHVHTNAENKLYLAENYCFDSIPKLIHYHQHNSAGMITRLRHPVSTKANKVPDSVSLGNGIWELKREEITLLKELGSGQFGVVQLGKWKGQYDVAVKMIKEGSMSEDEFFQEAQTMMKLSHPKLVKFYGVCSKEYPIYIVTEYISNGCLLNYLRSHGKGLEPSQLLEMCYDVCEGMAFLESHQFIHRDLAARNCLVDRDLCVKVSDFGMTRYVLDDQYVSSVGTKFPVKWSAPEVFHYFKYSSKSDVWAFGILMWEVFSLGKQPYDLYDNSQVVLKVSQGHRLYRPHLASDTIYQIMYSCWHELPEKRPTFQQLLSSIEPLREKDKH
Protocol: BTK assay: In vitro profiling protein kinases was performed using the “HotSpot” assay platform. Briefly, specific kinase/substrate pairs along with required cofactors were prepared in reaction buffer. Compounds were prepared as 10 mM stock solutions in DMSO. Compounds were delivered into the reaction, followed 15-20 minutes later by addition of a mixture of ATP (Sigma, St. Louis Mo.) and ^33P ATP (Perkin Elmer, Waltham Mass.) to a final concentration of 10 μM. Reactions were carried out at RT for 120 min, followed by spotting of the reactions onto P81 ion exchange filter paper (Whatman Inc., Piscataway, N.J.). Unbound phosphate was removed by extensive washing of filters in 0.75% Phosphoric acid. […] IC50 values and curve fits were obtained using Prism (GraphPad Software). Buffer Conditions: 20 mM Hepes (pH 7.5), 10 mM MgCl2, 1 mM EGTA, 0.02% Brij35, 0.02 mg/mL BSA, 0.1 mM Na3VO4, 2 mM DTT, 1% DMSO.
Compounds of the invention were profiled in a 10 dose IC50 panel against BMX/ETK, ITK and TEC kinases, provided by Reaction Biology Corporation, applied to the BTK protocol provided in Example B1.

PI3Kα = target: T2, PI3Kα (Homo sapiens, UniProt P42336); assay: PI3Kα isoform profiling (PI3Kδ protocol); conditions: for IC50: 10 dose IC50; for PI3Kα @ 0.3 μM (% Inh): 0.3 μM compound
T2 construct: purchased Reaction Biology Corporation
From the text: (§1) PI3Kδ assay: The PIP3 product is detected by displacement of biotin-PIP3 from an energy transfer complex consisting of Europium labeled anti-GST monoclonal antibody, a GST-tagged pleckstrin homology (PH) domain, biotinylated PIP3 and Streptavidin-Allophycocyanin (APC). Excitation of Europium in the complex results in an energy transfer to the APC and a fluorescent emission at 665 nm. The PIP3 product formed by PI 3-Kinase(h) activity displaces biotin-PIP3 from the complex resulting in a loss of energy transfer and thus a decrease in signal. This is a 3-step reaction: First, the kinase reaction with PIP2 substrate is carried out in the presence of ATP (10 μM), and the reaction is quenched with stop Solution, and then finally detect by adding Detection Mixture followed by incubation (10 min). Reaction procedure: 1) Prepare substrate in freshly prepared Reaction Buffer. 2) Deliver kinase into the substrate solution and gently mix. 3) Deliver compounds in 100% DMSO (1 μM) into the kinase reaction mixture by Acoustic technology (Echo550; nanoliter range), incubate for 10 min at RT. 4) Deliver ATP into the reaction mixture to initiate the reaction. 5) Incubate for 30 min at 30° C. 6) Quench the reaction with Stop Solution. 7) Add Detection Mixture, and incubate for overnight. 8) Measure HTRF: Ex=320 nm, ratio of Em=615 nm and Em=665 nm. The emission ratio is converted into μM PIP3 production based on PIP3 standard curves. The nonlinear regression to obtain the standard curve and IC50 values are performed using Graphpad Prism software. Assay Buffer: HEPES 50 mM (pH7.0), NaN3 0.02%, BSA 0.01%, Orthovanadate 0.1 mM, 1% DMSO. Detection buffer: HEPES 10 mM (pH7.0), BSA 0.02%, KF 0.16 M, EDTA 4 mM. Substrate: 10 μM PIP2 substrate (PI(4,5)P2).
(§2) Compounds of the invention were profiled in a 10 dose IC50 panel against PI3Kα, PI3Kβ, and PI3Kγ kinases, provided by Reaction Biology Corporation, applied to the PI3Kδ protocol provided in Example B1.

PI3Kγ = target: T3, PI3Kγ (Homo sapiens, UniProt P48736); assay: PI3Kγ isoform profiling (PI3Kδ protocol); conditions: for PI3Kγ @ 0.3 μM (% Inh): 0.3 μM compound; for IC50: 10 dose IC50
T3 construct: purchased Reaction Biology Corporation
From the text: as §1, §2

PI3Kδ = target: T4, PI3Kδ (Homo sapiens, UniProt O00329); assay: PI3Kδ kinase assay (HTRF, PIP3 detection); conditions: for PI3Kδ @ 0.01 μM (% Inh): 0.01 μM compound; for PI3Kδ @ 0.01 μM (% Inh) / PI3Kδ @ 0.1 μM (% Inh) / PI3Kδ @ 1 μM (% Inh): 10 μM ATP; for PI3Kδ @ 0.1 μM (% Inh): 0.1 μM compound; for IC50: 10 dose IC50, 10 μM ATP; for PI3Kδ @ 1 μM (% Inh): 1 μM compound
T4 construct: purchased Reaction Biology Corporation
Procedure, shortened: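 PIP3 formation read by loss of energy transfer as it displaces biotin-PIP3 from a Eu anti-GST/GST-PH/streptavidin-APC complex, calibrated against PIP3 standards.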

T2 sequence (P42336 whole entry, canonical isoform): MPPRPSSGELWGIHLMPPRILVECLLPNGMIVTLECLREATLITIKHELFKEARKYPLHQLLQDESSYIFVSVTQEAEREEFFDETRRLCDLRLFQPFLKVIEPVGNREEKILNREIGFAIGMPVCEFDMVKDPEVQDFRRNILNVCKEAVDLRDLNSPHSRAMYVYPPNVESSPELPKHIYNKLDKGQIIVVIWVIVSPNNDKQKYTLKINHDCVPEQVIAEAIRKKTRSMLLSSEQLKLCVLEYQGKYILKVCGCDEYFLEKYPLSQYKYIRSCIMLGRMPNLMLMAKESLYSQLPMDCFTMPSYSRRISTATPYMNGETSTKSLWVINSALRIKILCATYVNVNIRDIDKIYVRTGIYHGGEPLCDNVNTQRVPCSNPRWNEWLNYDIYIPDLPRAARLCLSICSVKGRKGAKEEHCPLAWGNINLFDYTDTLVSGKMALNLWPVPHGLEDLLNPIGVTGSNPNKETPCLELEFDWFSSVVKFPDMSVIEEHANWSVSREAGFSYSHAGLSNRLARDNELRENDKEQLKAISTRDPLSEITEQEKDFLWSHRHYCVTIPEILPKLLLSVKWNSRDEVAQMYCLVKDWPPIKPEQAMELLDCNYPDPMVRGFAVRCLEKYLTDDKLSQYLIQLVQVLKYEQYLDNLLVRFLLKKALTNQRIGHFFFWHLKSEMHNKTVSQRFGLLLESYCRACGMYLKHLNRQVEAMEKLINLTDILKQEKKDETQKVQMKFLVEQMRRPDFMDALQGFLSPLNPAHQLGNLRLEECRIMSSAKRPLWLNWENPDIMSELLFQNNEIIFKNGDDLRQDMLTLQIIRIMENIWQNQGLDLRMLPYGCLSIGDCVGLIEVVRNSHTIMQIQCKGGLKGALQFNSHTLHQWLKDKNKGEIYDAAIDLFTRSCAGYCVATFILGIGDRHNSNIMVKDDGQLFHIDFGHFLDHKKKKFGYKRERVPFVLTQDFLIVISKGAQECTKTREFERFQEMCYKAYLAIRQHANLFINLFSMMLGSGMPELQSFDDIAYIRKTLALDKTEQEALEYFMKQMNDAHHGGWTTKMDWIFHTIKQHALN
T2 sequence (P27986 whole entry partner, canonical isoform): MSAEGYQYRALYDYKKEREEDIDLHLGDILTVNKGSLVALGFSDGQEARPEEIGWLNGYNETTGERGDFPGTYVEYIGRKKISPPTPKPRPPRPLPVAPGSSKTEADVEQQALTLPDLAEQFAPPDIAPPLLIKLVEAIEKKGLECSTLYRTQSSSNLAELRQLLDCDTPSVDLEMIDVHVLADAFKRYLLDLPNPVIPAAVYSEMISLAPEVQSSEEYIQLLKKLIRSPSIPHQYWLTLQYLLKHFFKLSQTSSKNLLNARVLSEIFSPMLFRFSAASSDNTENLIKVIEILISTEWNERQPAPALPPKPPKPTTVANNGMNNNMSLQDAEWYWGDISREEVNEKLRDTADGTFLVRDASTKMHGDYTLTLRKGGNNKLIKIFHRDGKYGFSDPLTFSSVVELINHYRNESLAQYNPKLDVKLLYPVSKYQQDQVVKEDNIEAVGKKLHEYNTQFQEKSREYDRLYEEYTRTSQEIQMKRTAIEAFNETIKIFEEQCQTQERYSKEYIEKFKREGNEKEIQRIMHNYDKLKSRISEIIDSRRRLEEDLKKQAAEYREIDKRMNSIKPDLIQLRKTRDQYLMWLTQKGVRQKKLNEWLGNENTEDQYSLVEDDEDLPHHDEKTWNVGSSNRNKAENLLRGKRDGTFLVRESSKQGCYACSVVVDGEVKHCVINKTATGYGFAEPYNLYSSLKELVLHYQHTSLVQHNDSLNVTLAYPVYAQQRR
T4 sequence (O00329 whole entry): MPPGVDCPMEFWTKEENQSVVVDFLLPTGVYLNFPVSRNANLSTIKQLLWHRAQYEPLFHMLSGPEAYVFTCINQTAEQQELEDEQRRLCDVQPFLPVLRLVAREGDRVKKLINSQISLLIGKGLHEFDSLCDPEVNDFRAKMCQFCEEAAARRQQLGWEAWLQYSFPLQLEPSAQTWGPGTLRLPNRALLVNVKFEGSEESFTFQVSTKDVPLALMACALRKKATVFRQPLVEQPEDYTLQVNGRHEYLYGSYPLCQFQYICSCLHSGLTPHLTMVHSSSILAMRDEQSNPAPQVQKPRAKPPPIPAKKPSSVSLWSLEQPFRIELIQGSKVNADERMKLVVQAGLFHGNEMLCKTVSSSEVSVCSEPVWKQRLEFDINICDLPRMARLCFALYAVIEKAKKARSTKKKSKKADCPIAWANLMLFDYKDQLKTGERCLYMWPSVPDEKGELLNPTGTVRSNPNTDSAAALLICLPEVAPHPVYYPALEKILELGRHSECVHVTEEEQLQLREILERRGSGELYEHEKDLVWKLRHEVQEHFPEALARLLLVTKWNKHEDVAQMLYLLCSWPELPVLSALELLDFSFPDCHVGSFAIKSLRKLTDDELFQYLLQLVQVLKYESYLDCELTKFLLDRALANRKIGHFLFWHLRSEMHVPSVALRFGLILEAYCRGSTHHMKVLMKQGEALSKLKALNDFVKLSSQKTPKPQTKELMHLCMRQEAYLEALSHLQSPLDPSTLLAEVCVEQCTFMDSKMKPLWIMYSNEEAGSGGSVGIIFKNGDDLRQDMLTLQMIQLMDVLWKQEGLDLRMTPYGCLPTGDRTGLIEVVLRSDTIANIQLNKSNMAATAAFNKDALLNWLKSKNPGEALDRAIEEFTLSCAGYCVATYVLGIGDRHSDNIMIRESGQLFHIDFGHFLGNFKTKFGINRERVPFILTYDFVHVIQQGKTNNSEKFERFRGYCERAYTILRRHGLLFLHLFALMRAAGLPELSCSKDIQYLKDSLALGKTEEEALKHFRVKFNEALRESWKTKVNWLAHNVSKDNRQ
T4 sequence (P27986 whole entry partner): as the sequence (P27986 whole entry partner, canonical isoform) above
T3 sequence (P48736 whole entry, canonical isoform): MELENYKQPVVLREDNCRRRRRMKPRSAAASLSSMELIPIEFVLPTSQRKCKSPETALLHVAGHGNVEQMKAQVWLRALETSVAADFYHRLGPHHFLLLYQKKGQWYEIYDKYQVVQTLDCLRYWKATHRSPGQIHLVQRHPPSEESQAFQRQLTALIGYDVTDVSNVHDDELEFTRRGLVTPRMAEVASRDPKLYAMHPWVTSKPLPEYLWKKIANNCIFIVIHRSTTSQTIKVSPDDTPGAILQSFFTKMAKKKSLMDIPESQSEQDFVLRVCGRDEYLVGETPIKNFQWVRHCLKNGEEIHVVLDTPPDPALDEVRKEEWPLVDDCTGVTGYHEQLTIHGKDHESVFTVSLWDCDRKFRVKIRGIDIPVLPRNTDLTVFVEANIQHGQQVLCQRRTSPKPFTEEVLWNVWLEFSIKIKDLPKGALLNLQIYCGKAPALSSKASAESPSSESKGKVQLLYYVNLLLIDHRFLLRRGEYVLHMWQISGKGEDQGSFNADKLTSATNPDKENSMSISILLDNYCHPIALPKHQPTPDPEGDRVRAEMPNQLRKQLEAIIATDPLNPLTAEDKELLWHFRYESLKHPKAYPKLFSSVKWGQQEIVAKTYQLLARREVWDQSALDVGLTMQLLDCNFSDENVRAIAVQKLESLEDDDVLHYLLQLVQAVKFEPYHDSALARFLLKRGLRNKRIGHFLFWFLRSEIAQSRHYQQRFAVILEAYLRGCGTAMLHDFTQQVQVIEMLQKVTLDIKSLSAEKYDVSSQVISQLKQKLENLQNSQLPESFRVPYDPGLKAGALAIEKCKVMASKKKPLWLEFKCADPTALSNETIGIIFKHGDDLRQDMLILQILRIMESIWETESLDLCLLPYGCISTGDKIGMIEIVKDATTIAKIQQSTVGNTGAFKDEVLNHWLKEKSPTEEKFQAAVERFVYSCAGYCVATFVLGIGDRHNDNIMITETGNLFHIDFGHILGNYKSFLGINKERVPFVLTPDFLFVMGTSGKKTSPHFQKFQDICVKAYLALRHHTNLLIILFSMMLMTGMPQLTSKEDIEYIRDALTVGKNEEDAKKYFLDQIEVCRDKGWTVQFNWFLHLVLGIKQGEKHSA

BMX/ETK @ 0.3 μM (% Inh) (BMX/ETK) | IC50 (PI3Kα) | PI3Kγ @ 0.3 μM (% Inh) (PI3Kγ) | PI3Kδ @ 0.01 μM (% Inh) (PI3Kδ) | PI3Kδ @ 0.1 μM (% Inh) (PI3Kδ) | IC50 (PI3Kδ) | PI3Kδ @ 1 μM (% Inh) (PI3Kδ) | PI3Kα @ 0.3 μM (% Inh) (PI3Kα) | BMX/ETK @ 0.3 μM (% Inh) (BMX/ETK; 0.3 µM) | PI3Kα @ 0.3 μM (% Inh) (PI3Kα; 0.3 µM) | PI3Kγ @ 0.3 μM (% Inh) (PI3Kγ; 0.3 µM) | SMILES | IC50 (BMX/ETK) | IC50 (PI3Kγ)
92.59 % Inh | 83.5 nM | 47.05 % Inh | 40.85 % Inh | 76.2 % Inh | 11.9 nM |  |  |  |  |  | Nc1ncnc2c1c(-c1cc(O)c(F)c(Cl)c1)cn2C1Cc2ccccc2C1 [compound 110, 5-[4-amino-7-(2,3-dihydro-1H-inden-2-yl)-7H-pyrrolo[2,3-d]pyrimidin-5-yl]-3-chloro-2-fluorophenol] |  | 
86.63 % Inh | 186 nM | 62.17 % Inh |  | 69.44 % Inh | 33.2 nM | 99.12 % Inh |  |  |  |  | Nc1ncnc2c1c(-c1ccc(Cl)c(O)c1)nn2C1Cc2ccccc2C1 [Compound No. 56, 5-[4-amino-1-(2,3-dihydro-1H-inden-2-yl)-1H-pyrazolo[3,4-d]pyrimidin-3-yl]-2-chlorophenol] |  | 
97.14 % Inh | 120 nM | 57.6 % Inh | 26.61 % Inh | 62.53 % Inh | 62.1 nM |  |  |  |  |  | Nc1ncnc2c1c(-c1cc(O)c(F)c(F)c1)cn2C1Cc2ccccc2C1 [Compound No. 101, 5-[4-amino-7-(2,3-dihydro-1H-inden-2-yl)-7H-pyrrolo[2,3-d]pyrimidin-5-yl]-2,3-difluorophenol] |  | 
72.12 % Inh |  | 59.21 % Inh | 82.64 % Inh | 93.12 % Inh | 1.9 nM |  |  |  |  |  | N#Cc1cc(-c2cn(C3Cc4ccccc4C3)c3ncnc(N)c23)cc(O)c1F [compound 115, 5-[4-amino-7-(2,3-dihydro-1H-inden-2-yl)-7H-pyrrolo[2,3-d]pyrimidin-5-yl]-2-fluoro-3-hydroxybenzonitrile] |  | 
4.6 % Inh | 21.1 nM | 57.81 % Inh |  | 93.99 % Inh | 2.5 nM | 100.0 % Inh |  |  |  |  | Nc1ncnc2c1c(-c1cc(O)c(F)c(C(F)(F)F)c1)nn2C1Cc2ccccc2C1 [Compound No. 102, 5-[4-amino-1-(2,3-dihydro-1H-inden-2-yl)-1H-pyrazolo[3,4-d]pyrimidin-3-yl]-2-fluoro-3-(trifluoromethyl)phenol] |  | 
89.72 % Inh | 539 nM | 0.74 % Inh |  | 44.38 % Inh | 33.6 nM |  | 50.6 % Inh |  |  |  | C=CC(=O)N1CC(n2nc(-c3cc(O)cc(F)c3)c3c(N)ncnc32)Cc2cc(C)ccc21 (stereo not drawn) [compound 31, 1-(3-(4-amino-3-(3-fluoro-5-hydroxyphenyl)-1H-pyrazolo[3,4-d]pyrimidin-1-yl)-6-methyl-3,4-dihydroquinolin-1(2H)-yl)prop-2-en-1-one] | 6400 nM | 6460 nM
62.51 % Inh | 638 nM | 55.61 % Inh |  | 53.06 % Inh | 34.8 nM | 88.36 % Inh |  |  |  |  | Nc1ncnc2c1c(-c1cc(F)c3c(c1)NCCO3)nn2C1Cc2ccccc2C1 [Compound No. 84, 1-(2,3-dihydro-1H-inden-2-yl)-3-(8-fluoro-3,4-dihydro-2H-1,4-benzoxazin-6-yl)-1H-pyrazolo[3,4-d]pyrimidin-4-amine] |  | 
78.92 % Inh | 14 nM | 51.6 % Inh |  | 57.97 % Inh | 32.1 nM | 87.4 % Inh |  |  |  |  | COc1ccc(-c2nn(C3Cc4ccccc4C3)c3ncnc(N)c23)cc1O [Compound No. 68, 5-[4-amino-1-(2,3-dihydro-1H-inden-2-yl)-1H-pyrazolo[3,4-d]pyrimidin-3-yl]-2-methoxyphenol] |  | 

Second part, the compound before the results:

SMILES | BMX/ETK @ 0.3 μM (% Inh) (BMX/ETK) | IC50 (PI3Kα) | PI3Kγ @ 0.3 μM (% Inh) (PI3Kγ) | PI3Kδ @ 0.01 μM (% Inh) (PI3Kδ) | PI3Kδ @ 0.1 μM (% Inh) (PI3Kδ) | IC50 (PI3Kδ) | PI3Kδ @ 1 μM (% Inh) (PI3Kδ) | PI3Kα @ 0.3 μM (% Inh) (PI3Kα) | BMX/ETK @ 0.3 μM (% Inh) (BMX/ETK; 0.3 µM) | PI3Kα @ 0.3 μM (% Inh) (PI3Kα; 0.3 µM) | PI3Kγ @ 0.3 μM (% Inh) (PI3Kγ; 0.3 µM) | IC50 (BMX/ETK) | IC50 (PI3Kγ)
Nc1ncnc2c1c(-c1ccc(Br)c(O)c1)nn2C1Cc2ccccc2C1 [compound 2, 5-(4-amino-1-(2,3-dihydro-1H-inden-2-yl)-1H-pyrazolo[3,4-d]pyrimidin-3-yl)-2-bromophenol] |  | 17.3 nM |  |  |  |  |  |  |  |  |  | 7.7 nM | 
Nc1ncnc2c1c(-c1ccc(F)c(O)c1)nn2C1CCc2ccccc2C1 (racemic) [Compound No. 26, 5-(4-amino-1-(1,2,3,4-tetrahydronaphthalen-2-yl)-1H-pyrazolo[3,4-d]pyrimidin-3-yl)-2-fluorophenol] | 92.36 % Inh |  | 38.75 % Inh |  |  | 66.1 nM |  | 53.79 % Inh |  |  |  |  | 
Nc1ncnc2c1c(-c1cc(O)cc(F)c1)nn2C1Cc2ccccc2C1 [compound 3, 3-(4-amino-1-(2,3-dihydro-1H-inden-2-yl)-1H-pyrazolo[3,4-d]pyrimidin-3-yl)-5-fluorophenol] |  | 20.1 nM |  |  |  | 7.9 nM |  |  |  |  |  | 189 nM | 53.5 nM
C=CC(=O)N1CC(n2nc(-c3cc(O)cc(F)c3)c3c(N)ncnc32)Cc2cc(C)ccc21 (single isomer, unassigned) [31b, 1-(3-(4-amino-3-(3-fluoro-5-hydroxyphenyl)-1H-pyrazolo[3,4-d]pyrimidin-1-yl)-6-methyl-3,4-dihydroquinolin-1(2H)-yl)prop-2-en-1-one] | 88.04 % Inh | 249 nM | 14.76 % Inh | 44.15 % Inh | 78.27 % Inh | 10.6 nM |  |  |  |  |  |  | 
Nc1ncnc2c1c(-c1cc(O)cc(F)c1)nn2C1CCc2ccccc2C1 (single isomer, unassigned) [6a, 3-(4-amino-1-(1,2,3,4-tetrahydronaphthalen-2-yl)-1H-pyrazolo[3,4-d]pyrimidin-3-yl)-5-fluorophenol] |  |  |  |  | 77.7 % Inh | 9.1 nM |  |  | 84.79 % Inh | 85.6 % Inh | 38.58 % Inh |  | 
Nc1ncnc2c1c(-c1cc(O)cc(F)c1)nn2C1CCc2ccccc2C1 (single isomer, unassigned) [6b, 3-(4-amino-1-(1,2,3,4-tetrahydronaphthalen-2-yl)-1H-pyrazolo[3,4-d]pyrimidin-3-yl)-5-fluorophenol] |  |  |  |  | 79.6 % Inh | 7.7 nM |  |  | 71.49 % Inh | 91.35 % Inh | 45.57 % Inh |  | 

Reference: patent US20210317140A1, “Heterocyclic Compounds and Methods of Use” (MEDIVATION TECHNOLOGIES, INC, priority 2013, published 2021)
